From US8828997B2, “2,3-dihydro-1H-imidazo(1,2-a)pyrimidin-5-one derivatives, preparation thereof, and pharmaceutical use thereof” (Sanofi, priority 2009, dated 2014)

Key:
[1] = tested on: P. falciparum (highly chloroquine-resistant strain Fcm29-Cameroon); test: Antimalarial activity test (radioactive micromethod of Desjardins, tritiated hypoxanthine incorporation); format: cell-based; conditions: Plasmodium falciparum, Erythrocyte, infected human erythrocytes, 48 h
In short: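 P. falciparum cultured in infected human erythrocytes (2% haematocrit, 1.5% parasitaemia) in RPMI 1640 with 5% human serum and 1% DMSO, exposed to compound for 48 h at 37 °C, 5% CO2. Tritiated hypoxanthine added at 24 h; growth inhibition versus drug-free incorporation, reported as % at 1 μM and 0.1 μM.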

[2] = tested on: AKT protein phosphorylated on serine 473 (pAKT-S473) in PC3 human prostate carcinoma cells; test: pAKT expression in PC3 human prostate carcinoma cells measured by western blotting (test A); format: cell-based; conditions: PC-3, 1 to 2 h incubation, absolute IC50
Description: The inhibitory activity of the molecules on AKT phosphorylation is measured either by western blotting using the technique described below, or by the MSD Multi-spot Biomarker detection technique from Meso Scale Discovery also described below.
Study of pAKT Expression in PC3 Human Prostate Carcinoma Cells Measured by Western Blotting (test A):
This test is based on measuring the expression of the AKT protein phosphorylated on serine 473. The phosphorylation of AKT (pAKT) is measured by western blotting in the PC3 human prostate carcinoma line (ATCC CRL-1435), using an antibody that specifically recognises pAKT-S473.
On day 1, the PC3 cells are seeded into 6-well plates (TPP, #92006) at the concentration of 0.8×10^6 cells/well in 1800 μl of DMEM medium (DMEM Gibco #11960-044) containing 10% of foetal calf serum (SVF Gibco, #10500-056) and 1% glutamine (L-Glu Gibco #25030-024), and incubated at 37° C., 5% CO2, overnight.
On day 2, the cells are incubated in the presence or absence of the test products for 1 to 2 hours at 37° C. in the presence of 5% CO2. The molecules, diluted in dimethyl sulphoxide (DMSO Sigma #D2650), are added from a 10-times concentrated stock solution, the final percentage of DMSO being 0.1%. The molecules are tested either at a single concentration of less than or equal to 10 μM, or at increasing concentrations in a range that can extend from less than 1 nM to 10 μM.
After this incubation, the cells are lysed for the preparation of the proteins. After the culture medium has been drawn off, the cells are rinsed with 1 ml of PBS (DPBS Gibco, #14190-094), recovered by scraping in 200 μl of complete HNTG buffer and transferred into a 96-well plate (Greiner #651201), and lysed for 1 h on ice. The HNTG buffer is composed of the following mixture: 50 mM hepes, 150 mM NaCl, 1% triton, 10% glycerol, with extemporaneous addition of one Mini Protease Inhibitor Cocktail tablet (Roche 1836153) and of one Phosphatase Inhibitor Cocktail tablet (Roche104906837001) per 10 ml of buffer.
The lysate is centrifuged for 10 min at 6000 rpm. 155 μl of supernatant are recovered. 150 μl are incubated for denaturation for 5 min at 95° C. in the presence of 4× NuPAGE LDS Sample Buffer diluted 4-fold (InVitrogen ref NP0007) and of 10× NuPAGE Sample Reducing Agent diluted 10-fold (InVitrogen ref NP0009). These samples are then frozen at −20° C. 5 μl are assayed by the microBCA technique according to the technical bulletin of the MicroBCA Protein Assay Kit (Pierce #23235).
For protein separation, 20 μg of proteins are loaded on to a NU-PAGE 4-12% Bis Tris Gel 12 well (InVitrogen ref NP0322BOX) and the migration is carried out for 1 h 30 in 20× NU-PAGE MOPS SDS Running Buffer diluted 20-fold (InVitrogen ref NP0001), at 150 volts.
The gel is then transferred on to an Invitrolon PVDF membrane (Invitrogen #LC2007) permeabilised before and after a few seconds in ethanol (Ethanol Fischer Scientific #E/0600DF/15).
The transfer is carried out in a Biorad tank at 30 volts overnight or at 60 volts for 3 hours, in the presence of 20× NUPAGE Transfer Buffer diluted 20-fold (InVitrogen ref NP0006).
The membrane is then saturated in saturating solution composed of TBS (10× Tris Buffered Saline, Sigma #T5912, diluted 10-fold), 0.1% Tween 20 (Sigma #P5927) and 3% BSA (Bovine Albumin Serum Fraction V, Sigma #A4503) for 6 h after overnight transfer or else for 1 h after transfer for a period of 3 h.
The primary antibodies are diluted to 1/1000 for the anti-phospho AKT-Ser473 antibody (1931-12, rabbit monoclonal, cat#4058 from Cell Signaling Technology Abcam), in saturating solution composed of PBS, 0.1% Tween 20 and 3% BSA, and then shaken overnight at 4° C.
Two rinses for 5 min in washing solution composed of TBS and 0.1% Tween 20 are carried out before hybridisation of the secondary antibodies. […]

- IC50 [2]: 100 nM
Compound: COc1ccc(CCN2c3nc(N4CCOCC4)cc(=O)n3C[C@@]2(C)C(F)(F)F)cc1 [Example 1, (S)-1-[2-(4-Methoxyphenyl)ethyl]-2-methyl-7-morpholin-4-yl-2-trifluoromethyl-2,3-dihydro-1H-imidazo[1,2-a]pyrimidin-5-one]
- inhibition at 0.1 µM ([1]; 0.1 μM): 67%
- inhibition at 1 µM ([1]; 1 μM): 93%
